Source: PubChem BioAssay AID1508612
“And” between values parts separate entries of the source, which are not always exact repeats. Equal entries are not always repeated.

Assay: passive permeability, PAMPA, ADME assay (AID 1508612)
Details: pH 7.4, 30.0 min, 50.0 µM

Structure (SMILES)	Papp
O=S(=O)(Nc1nccs1)c1ccc(NCc2ccccc2)cc1	320 ×10⁻⁶ cm/s
Cc1ccc(CNCc2cn[nH]c2-c2ccc(C)cc2)cc1	> 1000 ×10⁻⁶ cm/s
COc1cc2c(C(=O)N3CCN(c4cccc(C(F)(F)F)c4)CC3)cn(CC(C)C)c(=O)c2cc1OC	> 1000 ×10⁻⁶ cm/s
COc1ccc(N(C)C(=O)c2cc3c(s2)-c2ccccc2OC3)cc1	822 ×10⁻⁶ cm/s
CCOc1ccc(CCNC(=O)c2cc3cccnc3n2Cc2cccc(C)c2)cc1OCC	> 1000 ×10⁻⁶ cm/s
Cc1ccc(CN2CCOC[C@H]2c2ncc(-c3cccc(F)c3)[nH]2)cc1	> 1000 ×10⁻⁶ cm/s
CCC(=O)N1CCN(c2ccc(-n3c(=O)ccc4cnc5ccc(-c6cnc7ccccc7c6)cc5c43)cc2C(F)(F)F)CC1	178 ×10⁻⁶ cm/s
O=C1CCCC2=C1C1(CCS(=O)(=O)C1)N=C(Nc1nc3ccccc3o1)N2 (centres undefined)	176 ×10⁻⁶ cm/s
Fc1ccc(Nc2nc(-c3ccncc3Cl)nc3ccccc23)cc1F	72.2 ×10⁻⁶ cm/s
CCCCCCN(CCCCCC)C(=O)Cc1c(-c2ccc(F)cc2)[nH]c2ccccc12	11.7 ×10⁻⁶ cm/s
O=C(O)c1cnc(-c2ccc(F)cc2)nc1-c1ccncc1	< 1 ×10⁻⁶ cm/s
COCCNCc1ccc(-c2cc3nccc(Oc4ccc(NC(=S)NC(=O)Cc5ccc(F)cc5)cc4F)c3s2)nc1	361 ×10⁻⁶ cm/s
CCN(CC)CCCNC(=O)c1oc2c(c1C)-c1nn(Cc3ccc(Cl)cc3)cc1CC2	> 1000 ×10⁻⁶ cm/s
CCn1cc(C(=O)O)c(=O)c2cnc(N3CCN(C(=S)Nc4ccccc4)CC3)nc21	12.1 ×10⁻⁶ cm/s
Cc1ccnc(N=C(N)N2CCN(c3cccc(C(F)(F)F)c3)CC2)c1	383 ×10⁻⁶ cm/s
CN1CCN(c2cc(-c3nc(Nc4ccc(F)c(F)c4)c4ccccc4n3)ccn2)CC1	> 1000 ×10⁻⁶ cm/s
O=C1CCc2cc(S(=O)(=O)Nc3ccc(F)c(Cl)c3)ccc2N1	460 ×10⁻⁶ cm/s
COc1cc(O)c([C@H](CC(=O)N2CC(C)CC(C)C2)c2ccc3c(c2)OCO3)c(OC)c1 (some centres undefined)	> 1000 ×10⁻⁶ cm/s
O=C(c1ccc(-c2ncc3cnc(-c4ccccc4)cn23)cc1)N1CCS(=O)(=O)CC1	45.6 ×10⁻⁶ cm/s
O=C(c1ccncc1)N1CCC2(CCCN(C(c3ccccc3)c3ccccc3)C2)CC1	> 1000 ×10⁻⁶ cm/s
O=C1Nc2ccccc2/C1=C\c1ccc([N+](=O)[O-])cc1	455 ×10⁻⁶ cm/s
Fc1cc(Nc2nc(-c3ccncc3)nc3ccccc23)ccc1-c1cncnc1	7.26 ×10⁻⁶ cm/s
COCCN1CCNc2nc(COc3ccc(C(C)C)cc3)n(Cc3ccccc3)c2C1=O	12 ×10⁻⁶ cm/s
CN1CCN(CCCN2c3ccccc3Sc3ccc(S(=O)(=O)N(C)C)cc32)CC1	> 1000 ×10⁻⁶ cm/s
Cc1cccc(C(=O)Nc2ccc(N3CCC(N4CCCCC4)CC3)c(C(=O)O)c2)c1	5.2 ×10⁻⁶ cm/s
COc1ccc(-c2ccc3c(N4CCOC[C@H]4C)nc(N4CCOC[C@H]4C)nc3n2)cc1CO	182 ×10⁻⁶ cm/s

Structure (SMILES)	Papp
Cc1ccc(S(=O)(=O)Nc2cnccc2C(=O)Nc2ccc(-c3nn[nH]n3)cc2)cc1	1.4 ×10⁻⁶ cm/s
CC1(C)CCC(c2ccc(Cl)cc2)=C(CN2CCN(c3ccc(C(=O)NS(=O)(=O)c4ccc(N[C@H](CCN5CCOCC5)CSc5ccccc5)c(S(=O)(=O)C(F)(F)F)c4)cc3)CC2)C1	1.1 ×10⁻⁶ cm/s
O=S(=O)(Nc1ccccc1)c1ccc(NCc2cccc(Cl)c2O)cc1	487 ×10⁻⁶ cm/s
COc1ccc(Nc2cnc3ccc(-c4ccc(OC)c(OC)c4)nn23)cc1	396 ×10⁻⁶ cm/s
Cc1ccc(-n2c(C)cc(C3=NNC(=NC4CC4)SC3)c2C)cc1C	> 1000 ×10⁻⁶ cm/s
C[S+](=O)([O-])c1ccc(-c2nc(C(=O)NCc3cccnc3)n3ccccc23)cc1	540 ×10⁻⁶ cm/s
Cc1cnc(-c2ccccc2C(C)C)nc1NCC1CCN(C2COC2)CC1	> 1000 ×10⁻⁶ cm/s
COc1cccc(CNc2ccc(S(=O)(=O)Nc3ccc(C)nc3)cc2)c1O	973 ×10⁻⁶ cm/s
c1ccc(Nc2nc(NCc3ccco3)c3ccccc3n2)cc1	930 ×10⁻⁶ cm/s
CC(C)Oc1cccc(-c2cnc(N3CCC(C(N)=O)CC3)s2)c1	810 ×10⁻⁶ cm/s
CCOC(=O)c1c(C)c(-c2ccccc2)n(CC(=O)NCc2ccccc2)c1C	> 1000 ×10⁻⁶ cm/s
CCN(CC)S(=O)(=O)c1ccc(N2CCOCC2)c(NC(=O)c2[nH]c(C)c(C(C)=O)c2C)c1	> 1000 ×10⁻⁶ cm/s
O=S(=O)(Nc1ccccc1)c1ccc(NCc2ccc(Br)cc2O)cc1	537 ×10⁻⁶ cm/s
CCc1nc2c(sc3nc4c(cc32)COC(C)(C)C4)c(=O)n1Cc1ccco1	> 1000 ×10⁻⁶ cm/s
O=C(NCCc1nc2ccccc2n1CCO)C1CCCCC1	85.4 ×10⁻⁶ cm/s
CCOC(=O)CCNc1cc(N2CCc3ccccc3CC2)nc(-c2cccnc2)n1	951 ×10⁻⁶ cm/s
COc1ccc(-c2csc(NC(=O)c3ccncc3NS(=O)(=O)c3ccc(C)cc3)n2)cc1	> 1000 ×10⁻⁶ cm/s
Fc1cc(Nc2nc(-c3ccncc3)nc3ccccc23)ccc1-c1cccc(OC(F)F)c1	30.1 ×10⁻⁶ cm/s
O=C(Nc1ccc2c(N3CCOCC3)ncnc2c1)c1cccc(Br)c1	> 1000 ×10⁻⁶ cm/s
Oc1c(C(Nc2nccs2)c2ccc(C(F)(F)F)cc2)ccc2cccnc12 (centres undefined)	41.6 ×10⁻⁶ cm/s
NC(=O)C1CCN(c2nnc(-c3ccc(Br)cc3)s2)CC1	525 ×10⁻⁶ cm/s
Cc1ccc(C(=O)Nc2ccc(CN3CCN(C)CC3)c(C(F)(F)F)c2)cc1C#Cc1cnc2cccnn12	> 1000 ×10⁻⁶ cm/s
C[C@@]12O[C@@H](C[C@]1(O)CO)n1c3ccccc3c3c4c(c5c6ccccc6n2c5c31)CNC4=O	7.06 ×10⁻⁶ cm/s
O=C(NCCCNc1nc(Nc2cccc(CN3CCOCC3)c2)ncc1C1CC1)C1CCC1	905 ×10⁻⁶ cm/s
Cc1ccc(S(=O)(=O)Nc2cnccc2C(=O)Nc2nc(-c3ccc4c(c3)CCCC4)cs2)cc1	45.2 ×10⁻⁶ cm/s
O=C1CCCC2=C1C(c1[nH]ncc1Br)N=C(Nc1nc3ccccc3o1)N2 (centres undefined)	797 ×10⁻⁶ cm/s

Structure (SMILES)	Papp
Cc1cccc(N2CCN(c3nc4ccccc4c4nnc(C)n34)CC2)c1C	887 ×10⁻⁶ cm/s
Cc1ccc(-c2nnc(N3CCC(C(N)=O)CC3)s2)cc1	246 ×10⁻⁶ cm/s
O=C1Nc2ccccc2/C1=C/c1ccnc2ccccc12	> 1000 ×10⁻⁶ cm/s
COc1ccc(C2CC(=O)Nc3nc(N)sc32)cc1OC (centres undefined)	36.1 ×10⁻⁶ cm/s
CN(C)C(=O)c1nc(-c2ccc(Cl)nc2)c2ccccn12	> 1000 ×10⁻⁶ cm/s
C[C@H]1CCC[C@H](O)CCC/C=C/c2cc(O)cc(O)c2C(=O)O1	864 ×10⁻⁶ cm/s
COc1ccc(NC(=O)c2[nH]c(C)c(C(C)=O)c2C)cc1S(=O)(=O)Nc1cccc(C#N)c1	30.9 ×10⁻⁶ cm/s
CNc1oc(-c2cccc(-c3ccccc3)c2)nc1C#N	918 ×10⁻⁶ cm/s
CN=C1CN=C(c2ccc[nH]2)c2cc(Cl)ccc2N1	354 ×10⁻⁶ cm/s and > 1000 ×10⁻⁶ cm/s
N[C@H]1CN(c2c(F)cc3c(=O)c(C(=O)O)cn(C4C[C@@H]4F)c3c2Cl)CC12CC2 (some centres undefined)	< 1 ×10⁻⁶ cm/s
CC(C)N(CCCNC(=O)Nc1ccc(C(C)(C)C)cc1)C[C@H]1O[C@@H](n2cc(Br)c3c(N)ncnc32)[C@H](O)[C@H]1O	472 ×10⁻⁶ cm/s
O=C(O)CCNc1cc(N2CCc3ccccc3CC2)nc(-c2ccccn2)n1	< 1 ×10⁻⁶ cm/s
O=C(c1nc(-c2cccnc2)c2ccccn12)N1CCN(c2ncccn2)CC1	> 1000 ×10⁻⁶ cm/s
CN1CCN(c2ccc(-c3cccc(CN4CCOCC4)c3)cc2NC(=O)c2c[nH]c(=O)cc2C(F)(F)F)CC1	3.88 ×10⁻⁶ cm/s
CCN1CCN(CCCOc2ccc(-c3ccccc3)cc2)CC1	> 1000 ×10⁻⁶ cm/s
CNc1oc(-c2cccc3ccccc23)nc1C#N	723 ×10⁻⁶ cm/s
COc1cc(N2CCC(N3CCN(C)CC3)CC2)ccc1Nc1ncc(Cl)c(Nc2ccccc2P(C)(C)=O)n1	266 ×10⁻⁶ cm/s
CC(C)C(=O)Nc1cccc(NC(=O)c2cc3ccccc3o2)c1	874 ×10⁻⁶ cm/s
Cc1cc2ccccc2n1CC(=O)NC1CCCCC1	634 ×10⁻⁶ cm/s
CCCCN(CC)CCCNC(=O)c1ccc2c(c1)N(Cc1ccc(C)cc1)C(=O)c1ccccc1S2	827 ×10⁻⁶ cm/s
O=C(Nc1ncccc1O)c1ccc(S(=O)(=O)Nc2ccccc2)cc1	344 ×10⁻⁶ cm/s
CC(C)c1ccc(S(=O)(=O)c2cnc(SCC(=O)Nc3ccc4c(c3)OCCO4)[nH]c2=O)cc1	1.84 ×10⁻⁶ cm/s
Cc1ccnc(NC(=S)N2CC[C@@H](Nc3cccc(C(F)(F)F)c3)C2)c1	> 1000 ×10⁻⁶ cm/s
CC(=O)c1c(C)[nH]c(C(=O)Nc2cccc([S+](=O)([O-])N3CCC(F)(F)CC3)c2)c1C	> 1000 ×10⁻⁶ cm/s
NC(=O)COc1cccc(C2CC(=O)Nc3nc(N4CCCCC4)sc32)c1 (centres undefined)	15.8 ×10⁻⁶ cm/s
CC(=O)C1CCN(c2ncc(-c3cccc(N(C)C)c3)s2)CC1	> 1000 ×10⁻⁶ cm/s

Structure (SMILES)	Papp
O=[S+]([O-])(Nc1ccc(N2CCNCC2)cc1)c1ccc(NCc2ccc(Br)cc2O)cc1	7.93 ×10⁻⁶ cm/s
COc1ccnc(NC(=S)N2CCN(c3ccc(Cl)c(Cl)c3)CC2)c1	601 ×10⁻⁶ cm/s
Cc1ccc(S(=O)(=O)Nc2cnccc2C(=O)Nc2nc(-c3ccccc3F)cs2)cc1	51.2 ×10⁻⁶ cm/s
O=C1Nc2ccc(I)cc2C1=Cc1cc(Br)c(O)c(Br)c1	150 ×10⁻⁶ cm/s
NC(=O)C1CCN(c2ncc(-c3cccc(N4CCOCC4)c3)s2)CC1	374 ×10⁻⁶ cm/s
CCOc1cc(CNc2ccc(O)cc2)ccc1OCc1ccc(Cl)cc1	< 1 ×10⁻⁶ cm/s
CCOc1ccc(CCNC(=O)c2cc3ccncc3n2Cc2cccc(C)c2)cc1OCC	20.6 ×10⁻⁶ cm/s
COc1cccc(Cn2c(=O)n(-c3cccc(Cl)c3C)c(=O)c3c4c(sc32)CN(C(C)=O)CC4)c1	> 1000 ×10⁻⁶ cm/s
COc1cc(-c2ccnc3c2c(C)nn3-c2cccc(C(F)(F)F)c2)ccc1O	93.1 ×10⁻⁶ cm/s
O=S(=O)(Nc1ccc(C2CCNCC2)cc1)c1ccc(NCc2cccc(Cl)c2O)cc1	3.22 ×10⁻⁶ cm/s
CC(C)c1ccc(CC(=O)N2CCCc3ncc(C(=O)Nc4cccnc4)cc32)cc1	734 ×10⁻⁶ cm/s
CCOc1ccc(C2c3c(oc4ccc(C)cc4c3=O)C(=O)N2CCCN(C)C)cc1 (centres undefined)	516 ×10⁻⁶ cm/s
Cc1ccc(-n2nc3c(=O)n(CCCC(=O)NCc4ccccc4F)nc(C)c3c2C)cc1	920 ×10⁻⁶ cm/s
Cc1ccc(-c2ccnc(N3CCC(C(N)=O)CC3)n2)cc1	577 ×10⁻⁶ cm/s
CCOc1ccccc1N1CC(c2nc3ccccc3n2CCOc2ccc(C(C)(C)C)cc2)CC1=O (centres undefined)	793 ×10⁻⁶ cm/s
COc1cc2c(c(OC)c1OC)-c1ccc(SC)c(=O)cc1C(N)CC2 (centres undefined)	> 1000 ×10⁻⁶ cm/s
Cc1cc(C)c(C(=O)Nc2cccc([S+](=O)([O-])N3CCCCC3)c2)[nH]1	936 ×10⁻⁶ cm/s
CN(Cc1ccccc1)C(=O)C1CCN(Cc2cccc3ccccc23)CC1	> 1000 ×10⁻⁶ cm/s
N#CC1CCN(c2nc(-c3ccc(Br)cc3)cs2)CC1	671 ×10⁻⁶ cm/s
c1ccc2c(Nc3ccon3)nc(-c3ccncc3)nc2c1	247 ×10⁻⁶ cm/s
c1ccc(-c2cn[nH]c2)cc1	288 ×10⁻⁶ cm/s
O=C(Nc1nc(-c2ccccc2)cs1)c1ccncc1NS(=O)(=O)c1ccccc1	501 ×10⁻⁶ cm/s
Cc1ccc(NC(=O)c2cc(-c3ccc(C)o3)nc3ccccc23)nc1	> 1000 ×10⁻⁶ cm/s
CC(C)(O)Cn1c(NC(=O)c2ccc(-c3cn[nH]c3)s2)nc2cc(CN3CCOCC3)ccc21	368 ×10⁻⁶ cm/s
O=C(c1ccc(C(=O)N2CCC(N3CCCC3)CC2)c(Nc2ccccc2)c1)N1CCC(N2CCCC2)CC1	7.61 ×10⁻⁶ cm/s
c1coc(-c2nc3ccncc3[nH]2)c1	27.9 ×10⁻⁶ cm/s
